Assay results as given in patent US12240859B2, “Turbinmicin compounds, compositions and uses thereof” (Wisconsin Alumni Research Foundation, priority 2019, dated 2025).
Values after ≈ are worked out from the molar mass of the structure shown. Read-outs that look alike come from different tables or passages of the source.

Legend:
A. fumigatus F11628 = assay: Neutropenic murine nasal aspiration pneumonia model of invasive pulmonary aspergillosis; assay type: in vivo, Aspergillus fumigatus
C. tropicalis = assay: In vitro MIC susceptibility testing, broth microdilution; assay type: cell-based; details: Candida tropicalis
Protocol: In vitro MIC susceptibility testing. […] The plates were incubated at 33° C. for 72 h. The MICs were determined as the lowest concentration that inhibited visible growth. The MICs were read at 24, 48, and 72 hours, respectively.

C. auris B11211 = assay: Neutropenic murine disseminated candidiasis model, C. auris B11211; assay type: in vivo, Candida auris; details: mice
From the text: (§1) Animals. Six-week-old ICR Swiss specific-pathogen-free female mice weighing 23 to 27 g were used for all studies. Animals were maintained in accordance with the American Association for Accreditation of Laboratory Care criteria. Animal studies were approved by the University of Wisconsin Animal Research Committee.
C. auris B11211 and C. albicans K1 Infection model. A neutropenic, murine, disseminated candidiasis model was used for the treatment studies. […]
C auris B11211 was subcultured on SDA 24 h prior to infection. […] Fungal counts of the inoculum determined by viable counts of C. auris on SDA were 6.25±0.03 log10 CFU ml^−1, respectively. […] Results were expressed as the mean number of CFU per kidney for three mice. […]
(§2) Disseminated infection with C. auris B11211 infection was produced by injection of 0.1 ml of the inoculum via the lateral tail vein 2 h prior to the start of antifungal therapy. […] The results are expressed as the mean and standard deviation of the log10 CFU/kidney from three mice. […]
(§3) Results. A multi-dose experiment with C. auris B11211 infection murine model was evaluated, and four doses (1, 2, 4, and 8 mg/kg) of turbinmicin were administered to mice every six hours over a 24 h period; turbinmicin was administered by intraperitoneal route.

Scedosporium spp. = assay: In vitro MIC susceptibility testing; assay type: cell-based
Protocol: (§4) In vitro MIC susceptibility testing. […]. Amphotericin B was used as a positive control and the MICs range were 0.25-1.5 μg/mL. Six untreated media controls were included on each plate. The plates were incubated at 33° C. for 72 h. The MICs were determined as the lowest concentration that inhibited visible growth. The MICs were read at 24, 48, and 72 hours, respectively. […]

[1] = system: Cynninghamella bertholletiae; assay: In vitro MIC susceptibility testing; assay type: cell-based
Protocol: as §4

Lichteimia corymbiferea = assay: In vitro MIC susceptibility testing; assay type: cell-based
Protocol: as §4

Apophysomyces elegans = assay: In vitro MIC susceptibility testing; assay type: cell-based
Protocol: as §4

Mucor circinelloides = assay: In vitro MIC susceptibility testing; assay type: cell-based
Protocol: as §4

Aspergillus fumigatus = assay: In vitro MIC susceptibility testing; assay type: cell-based
Protocol: as §4

Rhizopus oryzae = assay: In vitro MIC susceptibility testing; assay type: cell-based; details: Rhizopus arrhizus
Protocol: as §4

Rhizopus delemar = assay: In vitro MIC susceptibility testing; assay type: cell-based
Protocol: as §4

C. albicans K1 = assay: Neutropenic murine disseminated candidiasis model, C. albicans K1; assay type: in vivo, Candida albicans; details: mice
From the text: as §1
C. auris B11211 and C. albicans K1 Infection model. A neutropenic, murine, disseminated candidiasis model was used for the treatment studies. Mice were rendered neutropenic (neutrophils, <100/mm^3) by injecting them with cyclophosphamide (Mead Johnson Pharmaceuticals, Evansville, IN) subcutaneously 4 days (150 mg/kg) and 1 day (100 mg/kg) before infection, and 2 days after infection (100 mg/kg). Previous studies have shown neutropenia (<100 mm^3) in this model for the 96-h study period.
as §2, §3

C. albicans = assay: In vitro MIC susceptibility testing, broth microdilution; assay type: cell-based, Candida albicans; details: Candida albicans
Protocol: as §4

A. fumigatus = assay: Time kill experiments; assay type: cell-based, Aspergillus fumigatus; details: A. fumigatus as printed in b90 (FIG. 6C), 0-48 h

C/C=C/C=C/C=C/C(=O)OC1C=CCC2C(=O)c3c(O)c4c5c(c3OC12)OCOC5CC1C(=O)c2cc(C)[nH]c(=O)c2C(=O)C41O (centres unmarked) [Turbinmicin, turbinmicin]
survival (A. fumigatus F11628; mice, 0.25, 0.5 and 1 mg/kg IP every 6 hrs for 4 days, all three dosages): 100%
CE/mL reduction of lung homogenate measured by qPCR (A. fumigatus F11628; mice, dose of 1 mg/kg IP every 6 hrs for 4 days): 1 log 10 CE/mL
MIC (C. tropicalis; ATCC750, strain ATCC 750): 0.25 mg/L (≈ 0.398 µM)
MIC (C. tropicalis; strain 001): 0.5 mg/L (≈ 0.797 µM)
MIC (C. tropicalis; strain 98-234): 0.5 mg/L (≈ 0.797 µM)
MIC (C. tropicalis; strain 1751): 0.25 mg/L (≈ 0.398 µM)
MIC (C. tropicalis; strain 2597): 0.25 mg/L (≈ 0.398 µM)
CFU/kidney reduction (C. auris B11211; multi-dose 1, 2, 4 and 8 mg/kg intraperitoneal every six hours over 24 h, at 24 h, dose-dependent): > 3 log 10 CFU/kidney
antifungal effect, single dose (C. auris B11211; single intraperitoneal dose 8, 16, 32, 64 mg/kg, 6 h, data not shown): failed to reveal a significant antifungal effect
MIC (Scedosporium spp.): 0.5 mg/L (≈ 0.797 µM)
MIC [1]: > 8 mg/L
MIC (Lichteimia corymbiferea): 4 mg/L (≈ 6.37 µM)
MIC (Apophysomyces elegans): 4 mg/L (≈ 6.37 µM)
MIC (Mucor circinelloides): 4 mg/L (≈ 6.37 µM)
MIC (Aspergillus fumigatus; strain 293, read-out: MIC): 0.125 mg/L (≈ 0.199 µM)
MIC (Aspergillus fumigatus; strain F11628 (11628), Cyp51 G138C, triazole resistant): 0.03 mg/L (≈ 0.0478 µM)
MIC (Aspergillus fumigatus; strain F14403, Cyp51 G54R): 0.25 mg/L (≈ 0.398 µM)
MIC (Aspergillus fumigatus; strain F14532, Cyp51 M220T): 0.25 mg/L (≈ 0.398 µM)
MIC (Aspergillus fumigatus; strain F16216, Cyp51 L98H + TR): 0.25 mg/L
MIC (Rhizopus oryzae): > 8 mg/L
MIC (Rhizopus delemar): 4 mg/L (≈ 6.37 µM)
CFU/kidney reduction (C. albicans K1; multi-dose 1, 2, 4 and 8 mg/kg intraperitoneal over 24 hours): > 1 log 10 CFU/kidney
in vivo efficacy, single dose (C. albicans K1; single intraperitoneal dose 16, 32, 48 and 64 mg/kg, 6 h): showed in vivo efficacy
MIC (C. albicans; strain 98-17): 0.25 mg/L (≈ 0.398 µM)
MIC (C. albicans; strain 98-210): 0.25 mg/L (≈ 0.398 µM)
MIC (C. albicans; strain 580): 0.5 mg/L (≈ 0.797 µM)
MIC (C. albicans; strain K1 (K-1)): 0.25 mg/L (≈ 0.398 µM)
MIC (C. albicans; strain SN250): 0.25 mg/L (≈ 0.398 µM)
time-kill activity (A. fumigatus): Fungacidal activity was observed
